Assay [1] concerns MCF7 cells. Kind of assay: Anti-proliferation (viability) of MCF7 cells (Table 7, FIG. 2B). It is filed as cell-based. To be noted: Homo sapiens, MCF7, MCF7 cells, 3-6 days, 10-point serial dilution; read-out: GI IC50 in MCF-7.
Assay [2] addresses CDK4 (Homo sapiens, UniProt P11802+Q16531). Kind of assay: CDK4 percentage degradation in Calu-1 cells (Table 6). It is filed as cell-based. Details: Cells that express cyclin D1-3 and CDK4/6 proteins were treated with heterobifunctional compounds; endogenous in cells; host or cells: Calu-1. The following applies: 16 hours; for inhibition at 0.04 µM: 40 nM; for inhibition at 0.2 µM: 200 nM. The gist of the method:
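Calu-1 cells exposed to heterobifunctional compounds at 40 nM or 200 nM for 16 h. Cyclin D1 and CDK4 levels measured by Western blot of RIPA lysates (BCA-normalised loading), bands quantified by densitometry and expressed as percentage degradation.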

Chain of CDK4 (P11802 2-303 limits assumed): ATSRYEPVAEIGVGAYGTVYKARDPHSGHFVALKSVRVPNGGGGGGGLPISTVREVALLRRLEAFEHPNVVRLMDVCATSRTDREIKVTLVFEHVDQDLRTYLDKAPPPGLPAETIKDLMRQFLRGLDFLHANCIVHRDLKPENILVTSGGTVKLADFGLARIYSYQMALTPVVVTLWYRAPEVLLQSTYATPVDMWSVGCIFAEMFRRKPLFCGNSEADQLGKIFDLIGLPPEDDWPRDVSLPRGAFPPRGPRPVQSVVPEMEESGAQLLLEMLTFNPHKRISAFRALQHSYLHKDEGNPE
Chain of CDK4 (P24385 whole entry partner): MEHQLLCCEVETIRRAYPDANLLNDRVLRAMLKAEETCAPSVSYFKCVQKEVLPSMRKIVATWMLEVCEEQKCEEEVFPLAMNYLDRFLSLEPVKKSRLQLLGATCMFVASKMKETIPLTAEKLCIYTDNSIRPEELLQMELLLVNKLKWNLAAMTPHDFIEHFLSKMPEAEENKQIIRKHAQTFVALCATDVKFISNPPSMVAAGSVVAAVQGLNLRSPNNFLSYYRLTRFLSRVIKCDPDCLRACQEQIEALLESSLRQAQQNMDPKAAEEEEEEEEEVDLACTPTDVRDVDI
Chain of CDK4 (Q16531 2-1140 limits assumed): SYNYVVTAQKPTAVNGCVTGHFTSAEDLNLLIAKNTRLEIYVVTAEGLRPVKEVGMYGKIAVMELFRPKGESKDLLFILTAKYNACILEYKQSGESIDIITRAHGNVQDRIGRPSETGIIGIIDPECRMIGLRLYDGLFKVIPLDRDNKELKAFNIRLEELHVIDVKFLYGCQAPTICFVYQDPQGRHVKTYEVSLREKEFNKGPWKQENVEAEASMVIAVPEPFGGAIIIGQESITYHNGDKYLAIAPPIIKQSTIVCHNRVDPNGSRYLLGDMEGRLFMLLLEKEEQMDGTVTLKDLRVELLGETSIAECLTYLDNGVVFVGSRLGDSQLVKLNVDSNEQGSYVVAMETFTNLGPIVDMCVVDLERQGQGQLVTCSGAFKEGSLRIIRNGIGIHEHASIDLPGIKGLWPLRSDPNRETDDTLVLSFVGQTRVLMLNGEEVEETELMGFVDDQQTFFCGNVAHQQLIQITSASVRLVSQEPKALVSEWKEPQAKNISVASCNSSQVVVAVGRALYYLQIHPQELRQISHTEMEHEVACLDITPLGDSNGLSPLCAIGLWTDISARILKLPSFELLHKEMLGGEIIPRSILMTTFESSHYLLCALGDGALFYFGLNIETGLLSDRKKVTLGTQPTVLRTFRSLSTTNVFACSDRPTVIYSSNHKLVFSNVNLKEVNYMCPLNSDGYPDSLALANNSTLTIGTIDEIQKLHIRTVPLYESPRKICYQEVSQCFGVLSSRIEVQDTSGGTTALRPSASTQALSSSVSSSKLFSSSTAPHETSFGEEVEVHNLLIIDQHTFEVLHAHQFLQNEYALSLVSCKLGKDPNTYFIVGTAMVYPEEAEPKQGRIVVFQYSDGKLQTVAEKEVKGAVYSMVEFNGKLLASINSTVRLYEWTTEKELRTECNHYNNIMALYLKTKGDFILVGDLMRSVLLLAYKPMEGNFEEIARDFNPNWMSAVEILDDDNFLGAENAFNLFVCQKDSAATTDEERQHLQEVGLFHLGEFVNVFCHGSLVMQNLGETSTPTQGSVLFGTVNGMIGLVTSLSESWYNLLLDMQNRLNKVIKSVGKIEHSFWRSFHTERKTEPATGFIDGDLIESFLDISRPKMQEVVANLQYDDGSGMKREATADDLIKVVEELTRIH

Turning to `CC(=O)c1c(C)c2cnc(Nc3ccc(N4CCN(CC(=O)NCC5CC(Nc6nc(NC(C)C)ccc6C(=O)Nc6ccc(N(C)C)nn6)C5)CC4)cn3)nc2n(C2CCCC2)c1=O` (stereo not drawn) [CPD-316, 2-((3-((2-(4-(6-((6-acetyl-8-cyclopentyl-5-methyl-7-oxo-7,8-dihydropyrido[2,3-d]pyrimidin-2-yl)amino)pyridin-3-yl)piperazin-1-yl)acetamido)methyl)cyclobutyl)amino)-N-(6-(dimethylamino)pyridazin-3-yl)-6-(isopropylamino)nicotinamide], the IC50 in assay [1] was below 50 nM. In assay [2], this molecule registered an inhibition at 0.04 µM of 30 to 50% and an inhibition at 0.2 µM of 30 to 50%.
`CNc1ccc(C(=O)Nc2ccc(N(C)C)nn2)c(N[C@H]2CC[C@H](NC(=O)CCN3CCN(c4ccc(Nc5ncc6c(C)c(C(C)=O)c(=O)n(C7CCCC7)c6n5)nc4)CC3)CC2)n1` [CPD-223, 2-((trans-4-(3-(4-(6-((6-acetyl-8-cyclopentyl-5-methyl-7-oxo-7,8-dihydropyrido[2,3-d]pyrimidin-2-yl)amino)pyridin-3-yl)piperazin-1-yl)propanamido)cyclohexyl)amino)-N-(6-(dimethylamino)pyridazin-3-yl)-6-(methylamino)nicotinamide]: in assay [1], the IC50 is 50 to 100 nM. For the same molecule, in assay [2], the inhibition at 0.04 µM was in the range of 50 to 80% and the inhibition at 0.2 µM was in the range of 50 to 80%.
For `[2H]C([2H])([2H])Nc1ccc(C(=O)Nc2cccc(C)n2)c(NC2CC3(CC(NC(=O)CN4CCN(c5ccc(Nc6ncc7c(C)c(C(C)=O)c(=O)n(C8CCCC8)c7n6)nc5)CC4)C3)C2)n1` (stereo not drawn) [CPD-232, 2-((6-(2-(4-(6-((6-acetyl-8-cyclopentyl-5-methyl-7-oxo-7,8-dihydropyrido[2,3-d]pyrimidin-2-yl)amino)pyridin-3-yl)piperazin-1-yl)acetamido)spiro[3.3]heptan-2-yl)amino)-6-((methyl-d3)amino)-N-(6-methylpyridin-2-yl)nicotinamide], the IC50 in assay [1] is 50 to 100 nM. For the same molecule, in assay [2], the inhibition at 0.04 µM lay within 30 to 50% and the inhibition at 0.2 µM is 50 to 80%.
For `CC(=O)c1c(C)c2cnc(Nc3ccc(N4CCN(C(C)C(=O)NC5CC(Nc6nc(NC(C)C)ccc6C(=O)Nc6ccc(N(C)C)nn6)C5)CC4)cn3)nc2n(C2CCCC2)c1=O` (stereo not drawn) [CPD-326, 2-((3-(2-(4-(6-((6-acetyl-8-cyclopentyl-5-methyl-7-oxo-7,8-dihydropyrido[2,3-d]pyrimidin-2-yl)amino)pyridin-3-yl)piperazin-1-yl)propanamido)cyclobutyl)amino)-N-(6-(dimethylamino)pyridazin-3-yl)-6-(isopropylamino)nicotinamide], in that order: 50 to 100 nM, below 30% and below 30%.
For `CNc1ccc(C(=O)Nc2ccc(N(C)C)nn2)c(NC2CC3(C2)CN(C(=O)CC(C)N2CCN(c4ccc(Nc5ncc6c(C)c(C(C)=O)c(=O)n(C7CCCC7)c6n5)nc4)CC2)C3)n1` (stereo not drawn) [CPD-224, 2-((2-(3-(4-(6-((6-acetyl-8-cyclopentyl-5-methyl-7-oxo-7,8-dihydropyrido[2,3-d]pyrimidin-2-yl)amino)pyridin-3-yl)piperazin-1-yl)butanoyl)-2-azaspiro[3.3]heptan-6-yl)amino)-N-(6-(dimethylamino)pyridazin-3-yl)-6-(methylamino)nicotinamide], in that order: below 50 nM, 30 to 50% and 30 to 50%.
On to `CC(=O)c1c(C)c2cnc(Nc3ccc(N4CCN(CC(=O)NCC5CC(Nc6nc(NC(C)C)ccc6C(=O)Nc6cc(C)n(C)n6)C5)CC4)cn3)nc2n(C2CCCC2)c1=O` (stereo not drawn) [CPD-205, 2-((3-((2-(4-(6-((6-acetyl-8-cyclopentyl-5-methyl-7-oxo-7,8-dihydropyrido[2,3-d]pyrimidin-2-yl)amino)pyridin-3-yl)piperazin-1-yl)acetamido)methyl)cyclobutyl)amino)-N-(1,5-dimethyl-1H-pyrazol-3-yl)-6-(isopropylamino)nicotinamide], for which the IC50 in assay [1] is below 50 nM. In assay [2], this molecule displayed an inhibition at 0.04 µM of 50 to 80% and an inhibition at 0.2 µM of 50 to 80%.
In the case of `CC(=O)c1c(C)c2cnc(Nc3ccc(CN4CCN(CC(=O)N5CCC(Nc6nc(NC(C)C)ccc6C(=O)Nc6ccc(N(C)C)nn6)CC5)CC4)cn3)nc2n(C2CCCC2)c1=O` [CPD-358, 2-((1-(2-(4-((6-((6-acetyl-8-cyclopentyl-5-methyl-7-oxo-7,8-dihydropyrido[2,3-d]pyrimidin-2-yl)amino)pyridin-3-yl)methyl)piperazin-1-yl)acetyl)piperidin-4-yl)amino)-N-(6-(dimethylamino)pyridazin-3-yl)-6-(isopropylamino)nicotinamide], the IC50 in assay [1] fell in the range of 50 to 100 nM. In assay [2], this molecule displayed an inhibition at 0.04 µM below 30% and an inhibition at 0.2 µM below 30%.
In the case of `CNc1ccc(C(=O)Nc2ccc(F)c(C)n2)c(NC2CC3(CC(NC(=O)CN4CCN(c5ccc(Nc6ncc7c(C)c(C(C)=O)c(=O)n(C8CCCC8)c7n6)nc5)CC4)C3)C2)n1` (stereo not drawn) [CPD-221, 2-((6-(2-(4-(6-((6-acetyl-8-cyclopentyl-5-methyl-7-oxo-7,8-dihydropyrido[2,3-d]pyrimidin-2-yl)amino)pyridin-3-yl)piperazin-1-yl)acetamido)spiro[3.3]heptan-2-yl)amino)-N-(5-fluoro-6-methylpyridin-2-yl)-6-(methylamino)nicotinamide], in assay [1], the IC50 is above 100 nM. Further, in assay [2], the inhibition at 0.04 µM was 50 to 80% and the inhibition at 0.2 µM was 50 to 80%.
For the molecule `CNc1ccc(C(=O)Nc2ccc(N(C)C)nn2)c(NC2CC(NC(=O)C(C)N3CCN(c4ccc(Nc5ncc6c(C)c(C(C)=O)c(=O)n(C7CCCC7)c6n5)nc4)CC3)C2)n1` (stereo not drawn) [CPD-242, 2-((3-(2-(4-(6-((6-acetyl-8-cyclopentyl-5-methyl-7-oxo-7,8-dihydropyrido[2,3-d]pyrimidin-2-yl)amino)pyridin-3-yl)piperazin-1-yl)propanamido)cyclobutyl)amino)-N-(6-(dimethylamino)pyridazin-3-yl)-6-(methylamino)nicotinamide], the IC50 in assay [1] is above 100 nM. Besides, in assay [2], the inhibition at 0.04 µM was in the range of 50 to 80% and the inhibition at 0.2 µM is 50 to 80%.
In the case of `CNc1ccc(C(=O)Nc2ccc(N(C)C)nn2)c(NC2CC(C(=O)N3CCC(N4CCN(c5ccc(Nc6ncc7c(C)c(C(C)=O)c(=O)n(C8CCCC8)c7n6)nc5)CC4)C3)C2)n1` (stereo not drawn) [CPD-333, 2-((3-(3-(4-(6-((6-acetyl-8-cyclopentyl-5-methyl-7-oxo-7,8-dihydropyrido[2,3-d]pyrimidin-2-yl)amino)pyridin-3-yl)piperazin-1-yl)pyrrolidine-1-carbonyl)cyclobutyl)amino)-N-(6-(dimethylamino)pyridazin-3-yl)-6-(methylamino)nicotinamide], the IC50 in assay [1] is below 50 nM. In assay [2], this molecule displayed an inhibition at 0.04 µM below 30% and an inhibition at 0.2 µM below 30%.
In the case of `CNc1ccc(C(=O)Nc2cn(C)c(C3CC3)n2)c(NC2CC(NC(=O)CN3CCN(c4ccc(Nc5ncc6c(C)c(C(C)=O)c(=O)n(C7CCCC7)c6n5)nc4)CC3)C2)n1` (stereo not drawn) [CPD-217, 2-((3-(2-(4-(6-((6-acetyl-8-cyclopentyl-5-methyl-7-oxo-7,8-dihydropyrido[2,3-d]pyrimidin-2-yl)amino)pyridin-3-yl)piperazin-1-yl)acetamido)cyclobutyl)amino)-N-(2-cyclopropyl-1-methyl-1H-imidazol-4-yl)-6-(methylamino)nicotinamide], in assay [1], the IC50 is above 100 nM. In assay [2], this molecule returned an inhibition at 0.04 µM of 50 to 80% and an inhibition at 0.2 µM of 50 to 80%.

As usually defined, the IC50 is the concentration needed to halve the response being measured. As usually defined, the inhibition is how much of the control response was suppressed. Low values mean a weak effect, high ones a strong effect.

For the origin of these results see patent US20260297081A1, “COMPOUNDS AND METHODS OF TREATING CANCERS” (Cullgen Inc., priority 2023, published 2026).
